In the Kinase Knowledgebase extract (Sharma et al. 2016):

biological target: PIK3CG (human) (UniProt P48736); test: Inhibition of PIK3CG Kinase Activity
Sequence (P48736 whole entry, looked up): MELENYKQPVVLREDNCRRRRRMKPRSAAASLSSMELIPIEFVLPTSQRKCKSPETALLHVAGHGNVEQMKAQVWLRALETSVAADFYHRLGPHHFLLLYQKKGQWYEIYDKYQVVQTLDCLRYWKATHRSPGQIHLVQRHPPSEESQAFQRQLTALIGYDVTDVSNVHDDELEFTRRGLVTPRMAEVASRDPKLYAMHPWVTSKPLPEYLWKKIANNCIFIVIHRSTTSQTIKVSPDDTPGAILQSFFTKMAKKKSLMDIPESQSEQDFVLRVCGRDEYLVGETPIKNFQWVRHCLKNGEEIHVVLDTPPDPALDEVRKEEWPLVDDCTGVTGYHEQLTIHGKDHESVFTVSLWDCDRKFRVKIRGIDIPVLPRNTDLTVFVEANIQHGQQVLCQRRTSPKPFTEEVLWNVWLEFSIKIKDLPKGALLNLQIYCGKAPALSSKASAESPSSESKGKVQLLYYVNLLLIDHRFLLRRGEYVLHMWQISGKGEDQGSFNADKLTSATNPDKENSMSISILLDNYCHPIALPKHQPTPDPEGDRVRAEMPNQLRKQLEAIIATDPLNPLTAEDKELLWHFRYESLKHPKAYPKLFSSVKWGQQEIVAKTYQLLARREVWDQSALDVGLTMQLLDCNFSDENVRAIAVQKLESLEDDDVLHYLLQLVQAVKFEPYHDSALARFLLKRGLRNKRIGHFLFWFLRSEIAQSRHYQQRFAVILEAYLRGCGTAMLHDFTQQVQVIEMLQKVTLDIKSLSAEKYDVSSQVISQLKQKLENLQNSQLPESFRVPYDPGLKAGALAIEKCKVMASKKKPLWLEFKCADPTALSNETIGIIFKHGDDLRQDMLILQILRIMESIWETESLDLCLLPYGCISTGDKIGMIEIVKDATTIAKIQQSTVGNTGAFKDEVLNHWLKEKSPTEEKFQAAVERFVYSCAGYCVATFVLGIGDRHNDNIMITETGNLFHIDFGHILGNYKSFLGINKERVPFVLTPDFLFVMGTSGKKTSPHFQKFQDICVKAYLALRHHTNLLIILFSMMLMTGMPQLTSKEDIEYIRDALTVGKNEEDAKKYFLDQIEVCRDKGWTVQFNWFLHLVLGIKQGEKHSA

SMILES	Ki [nM]
COc1cccc(-c2cc(C)c3c(n2)CN(c2cnn(CC(F)(F)F)c2)C3=O)n1	< 100
CC[C@H]1c2nc(-c3cnc(OC)c(OC)c3)ccc2C(=O)N1c1cnn(CC(F)(F)F)c1	100 to 490
CCOc1ncc(-c2cc(C)c3c(n2)[C@@]2(CCCO2)N(c2ccn(CC)n2)C3=O)cc1OC	100 to 490
COc1cncc(-c2cc(C)c3c(n2)C(C)N(c2cnn(CC(F)(F)F)c2)C3=O)c1 (stereo not given)	< 100
COc1cc(-c2ccc3c(n2)C(C)N(c2ccn(CC(C)(C)O)n2)C3=O)cnc1OC (stereo not given)	< 100
COc1ncc(-c2ccc3c(n2)CN(c2cnn(CC#N)c2)C3=O)c(OC)n1	100 to 490
Cc1ncc(-c2ccc3c(n2)CN(c2cnn(CC(F)(F)F)c2)C3=O)cc1OCC(F)F	100 to 490
Cc1cc(-c2cncc(C(=O)NC3COC3)c2)nc2c1C(=O)N(c1cnn(CC(F)(F)F)c1)C2(C)C	< 100
COc1cc(-c2ccc3c(n2)CN(c2cnn(C(C)C)c2)C3=O)cnc1OC	< 100
COc1ncc(-c2cc(C)c3c(n2)CN(c2ccn(C(C)(C)C#N)n2)C3=O)cc1OCC(F)F	< 100
COc1cc(-c2ccc3c(n2)C(C)N(c2ccn(C)n2)C3=O)cnc1OC (stereo not given)	< 100
Cc1cc(-c2cncc(OC(F)F)c2)nc2c1C(=O)N(c1cn[nH]c1)C2C (stereo not given)	< 100
COc1cc(-c2ccc3c(n2)C(C)N(c2cnn(C(C)(C)C#N)c2)C3=O)cnc1OC (stereo not given)	< 100
COc1cncc(-c2cc(C)c3c(n2)C(OC)N(c2cnn(CC(F)(F)F)c2)C3=O)c1 (stereo not given)	< 100
COc1cncc(-c2cc(C)c3c(n2)[C@H](OC)N(c2cnn(CC(F)(F)F)c2)C3=O)c1	< 100
CCOc1cncc(-c2cc(C)c3c(n2)C2(CCOC2)N(c2cnn(CC(F)(F)F)c2)C3=O)c1 (stereo not given)	< 100
COc1cc(-c2ccc3c(n2)C(C)N(c2cncc(C(O)C(F)(F)F)c2)C3=O)cnc1OC (stereo not given)	< 100
COc1cc(-c2cc(C)c3c(c2)CN(c2cnn(CC#N)c2)C3=O)cnc1OC	< 100
Cc1cc(-c2cncc(OCC(F)(F)F)c2)nc2c1C(=O)N(c1cnn(CC(F)(F)F)c1)C2	< 100
COc1cc(-c2ccc3c(n2)[C@H](C)N(c2cccc(C(C)(C)C#N)n2)C3=O)cnc1OC	< 100
COc1cc(-c2ccc3c(n2)CN(c2cnn(CCN(C)C)c2)C3=O)cnc1OC	100 to 490
CCOc1cncc(-c2cc(C)c3c(n2)[C@]2(CCOC2)N(c2cnn(CC(F)(F)F)c2)C3=O)c1	< 100
COc1cc(OC)cc(-c2cc(C)c3c(n2)CN(c2cnn(CC#N)c2)C3=O)c1	< 100
COc1ncc(-c2cc(C)c3c(n2)C(C)(C)N(c2cnn(CC(F)(F)F)c2)C3=O)cc1C(=O)N[C@@H]1CCOC1	< 100

SMILES	Ki [nM]
COc1ncc(-c2cc(C)c3c(c2)C(C)N(c2cnn(CC(F)(F)F)c2)C3=O)cc1OC(F)F (stereo not given)	< 100
COc1cc(-c2ccc3c(n2)[C@@H](C)N(c2cnn(CC#N)c2)C3=O)cnc1OC	< 100
CCc1cc(-c2cnc(OC)c(OC)c2)nc2c1C(=O)N(c1cnn(CC(F)(F)F)c1)C2	< 100
COc1ncc(-c2cc(C)c3c(n2)CN(c2cnn(CC(F)(F)F)c2)C3=O)cc1OCC(F)F	< 100
COc1ncc(-c2cc(C)c3c(n2)C(C)N(c2cnn(CC(F)(F)F)c2)C3=O)cc1OC(F)F (stereo not given)	< 100
CCn1cc(N2C(=O)c3ccc(-c4cnc(OC)c(OC)c4)nc3[C@@H]2C)cn1	< 100
COC1c2nc(-c3cncc(OCC(F)F)c3)cc(C)c2C(=O)N1c1cnn(CC(F)(F)F)c1 (stereo not given)	< 100
COc1cc(-c2ccc3c(n2)CN(c2cnn(Cc4cscn4)c2)C3=O)cnc1OC	< 100
Cc1cc(-c2cncc(C(=O)N3CCOCC3)c2)nc2c1C(=O)N(c1cnn(CC(F)(F)F)c1)C2(C)C	100 to 490
COc1ccc(-c2cc(C)c3c(n2)CN(c2cnn(CC#N)c2)C3=O)c(OC)n1	< 100
COc1cc(-c2ccc3c(n2)CN(c2cnn(C4CCCCC4O)c2)C3=O)cnc1OC (stereo not given)	100 to 490
COCCOc1ncc(-c2ccc3c(n2)CN(c2cnn(CC#N)c2)C3=O)cc1OC	< 100
CCn1cc(N2Cc3cc(-c4cnc(OC)c(OC)c4)ccc3C2=O)cn1	< 100
CCOC1c2nc(-c3cnc(OC)c(OC)c3)ccc2C(=O)N1c1cnn(CC(F)(F)F)c1 (stereo not given)	< 100
COc1cc(-c2ccc3c(n2)CN(c2cnn(CCn4cccn4)c2)C3=O)cnc1OC	100 to 490
COc1cncc(-c2cc(C)c3c(n2)C(C)N(c2cn[nH]c2)C3=O)c1 (stereo not given)	< 100
Cc1cc(-c2cncc(C(F)(F)F)c2)nc2c1C(=O)N(c1cnn(CC#N)c1)C2	< 100
Cc1cc(-c2cncc(OC(F)F)c2)nc2c1C(=O)N(c1cncc(CC#N)c1)C2C (stereo not given)	< 100
COc1cc(-c2cc(C)c3c(n2)CN(c2ccnc(OCC(F)F)c2)C3=O)cnc1OC	< 100
CCn1cc(N2Cc3nc(-c4cnc(OC)c(OC(F)F)c4)cc(C)c3C2=O)cn1	< 100
COc1cncc(-c2cc(C)c3c(n2)[C@@H](C)N(c2cn[nH]c2)C3=O)c1	< 100
COCCOCn1cc(N2Cc3nc(-c4cnc(OC)c(OC)c4)ccc3C2=O)cn1	< 100
COc1cc(-c2cc(C)c3c(n2)CN(c2cccc(C4(C#N)CC4)c2)C3=O)cnc1OC	< 100
COc1cc(-c2cc(OC)c3c(n2)CN(c2cnn(CC(F)(F)F)c2)C3=O)cnc1OC	< 100

SMILES	Ki [nM]
COc1ncc(-c2cc(C)c3c(n2)C(C)(C)N(c2cnn(CC(F)(F)F)c2)C3=O)cc1NS(=O)(=O)N(C)C	< 100
COc1cc(-c2cc(C3CC3)c3c(n2)CN(c2cnn(CC(F)(F)F)c2)C3=O)cnc1OC	< 100
Cc1cc(-c2cncc(OC(F)F)c2)nc2c1C(=O)N(c1cnn(CC(F)(F)F)c1)C2(C)O (stereo not given)	< 100
COc1cc(-c2ccc3c(n2)CN(c2ccc(N4CC[C@@H](F)C4)nc2)C3=O)cnc1OC	100 to 490
COc1cc(-c2cc(C)c3c(n2)C(C)(C)N(c2cnn(CC(F)F)c2)C3=O)cnc1C	< 100
COc1cc(-c2ccc3c(c2)CN(c2cccc(C(N)=O)c2)C3=O)cnc1OC	< 100
COc1cc(OC)c(-c2cc(C)c3c(n2)CN(c2cnn(CC(F)(F)F)c2)C3=O)cn1	< 100
CCOc1ncc(-c2cc(C)c3c(n2)CN(c2cc[nH]n2)C3=O)cc1OC	< 100
COc1cc(-c2cc(C)c3c(n2)CN(c2ccn([C@@H]4CCOC4)n2)C3=O)cnc1F	< 100
CCOc1cncc(-c2cc(C)c3c(n2)[C@](C)(OC)N(c2cnn(CC(F)(F)F)c2)C3=O)c1	< 100
COc1cc(-c2cc(C)c3c(n2)[C@]2(CCCO2)N(c2cnn(CC(F)(F)F)c2)C3=O)cnc1OC	< 100
COc1cc(-c2cc(C)c3c(n2)CN(c2ccnc(C#N)c2)C3=O)cnc1OC	< 100
COc1ccc(-c2ccc3c(n2)CN(c2cnn(CC#N)c2)C3=O)c(C)n1	100 to 490
COc1cncc(-c2cc(C)c3c(n2)[C@H](C)N(c2ccn(C[C@H](C)O)n2)C3=O)c1	< 100
COc1ncc(-c2cc(C)c3c(n2)CN(c2cn[nH]c2)C3=O)cc1OC(C)C	< 100
COc1cc(-c2cc(C)c3c(n2)C(OC(C)=O)N(c2cnn(CC(F)(F)F)c2)C3=O)cnc1OC (stereo not given)	< 100
Cc1cc(-c2cncc(NS(=O)(=O)C(C)C)c2)nc2c1C(=O)N(c1cnn(CC(F)(F)F)c1)C2(C)C	< 100
COc1cc(-c2ccc3c(n2)CN(c2cnn(CCn4cncn4)c2)C3=O)cnc1OC	< 100
COc1cc(-c2ccc3c(n2)C(C)N(c2ccn(C[C@H](C)O)n2)C3=O)cnc1OC (stereo not given in full)	< 100
CCn1cc(N2C(=O)c3ccc(-c4cnc(OC)c(OC(F)F)c4)nc3[C@@H]2C)cn1	< 100
COc1cc(-c2ccc3c(n2)CN(c2cnn(Cc4cccc5c4OCCCO5)c2)C3=O)cnc1OC	< 100
COc1cc(-c2ccc3c(n2)[C@H](C)N(c2cn[nH]c2)C3=O)cnc1OC	< 100
Cc1ncc(-c2ccc3c(n2)CN(c2cnn(CC(F)(F)F)c2)C3=O)cc1O	100 to 490
CCn1cc(N2Cc3nc(-c4cnc(OC)c(OC)c4)ccc3C2=O)nn1	< 100

SMILES	Ki [nM]
COc1cc(-c2ccc3c(n2)CN(c2ccc(=O)n(CC(F)(F)F)c2)C3=O)cnc1OC	< 100
C=C(F)Cn1cc(N2Cc3nc(-c4cncc(OC(F)F)c4)cc(C)c3C2=O)cn1	< 100
COc1ccc(-c2cc(C)c3c(n2)CN(c2cnn(CC(F)(F)F)c2)C3=O)nc1OC	< 100
Cc1ccc(-c2cc(C)c3c(n2)CN(c2cnn(CC(F)(F)F)c2)C3=O)cc1O	< 100
COc1cc(-c2cc(C)c3c(n2)C(O)N(c2cnn(CC(F)(F)F)c2)C3=O)cnc1OC (stereo not given)	< 100
COc1cc(-c2cc(C)c3c(n2)C(C)(C)N(c2cnn(C[C@@H](C)O)c2)C3=O)cnc1OC	< 100
COc1cc(-c2ccc3c(n2)CN(c2ccc(N4CCC(F)CC4)nc2)C3=O)cnc1OC	< 100
CCNC(=O)c1cc(-c2cc(C)c3c(n2)C(C)(C)N(c2cnn(CC(F)F)c2)C3=O)cnc1OC	< 100
COc1cc(-c2ccc3c(n2)CN(c2cn[nH]c2)C3=O)cnc1OC	< 100
CCOc1cncc(-c2cc(C)c3c(n2)C(OC)N(c2cnn(CC(F)(F)F)c2)C3=O)c1 (stereo not given)	< 100
COc1cc(-c2ccc3c(c2)CN(c2cccc(CC#N)c2)C3=O)cnc1OC	< 100
Cc1cc(-c2cncc(S(C)(=O)=O)c2)nc2c1C(=O)N(c1cnn(CC(F)(F)F)c1)C2	< 100
COc1ncc(-c2cc(C)c3c(n2)C(C)(C)N(c2cnn(CC(F)(F)F)c2)C3=O)cc1C(=O)NC[C@@H](O)CO	< 100
CCn1ccc(N2Cc3nc(-c4cnc(OC)c(OC(C)C)c4)cc(C)c3C2=O)n1	< 100
Cc1cc(-c2cnc(C)c(OCC(F)F)c2)nc2c1C(=O)N(c1ccn([C@H]3CCOC3)n1)C2	< 100
COc1cc(-c2cc(C)c3c(n2)C(OC2CCC2)N(c2cnn(CC(F)(F)F)c2)C3=O)cnc1OC (stereo not given)	< 100
COc1cc(-c2ccc3c(c2)CN(c2cc(C)n(C)n2)C3=O)cnc1OC	100 to 490
COc1cc(-c2cc(C)c3c(n2)CN(c2ccn(CC(F)(F)F)n2)C3=O)cnc1OC	< 100
Cc1cc(-c2cnc(C)c(OCC(F)(F)F)c2)nc2c1C(=O)N(c1ccn([C@H]3CCOC3)n1)C2	< 100
COc1cc(-c2ccc3c(c2)CN(c2cnn(CCO)c2)C3=O)cnc1OC	100 to 490
COCCO[C@H]1c2nc(-c3cnc(OC)c(OC)c3)ccc2C(=O)N1c1cnn(CC(F)(F)F)c1	100 to 490
COc1cc(-c2cc(C)c3c(n2)CN(c2cnn(CC(F)(F)F)c2)C3=O)cnc1C	< 100
CCn1cc(N2Cc3nc(-c4cncc(OC(F)F)c4)cc(C)c3C2=O)cn1	< 100
